pIC50: −log10 of the molar value.
Test: Antagonist activity against HIV-1 Vif in human CEM cells assessed as inhibition of viral infection

`COc1ccccc1NC(=O)c1ccccc1Sc1ccc([N+](=O)[O-])cc1` gave a pIC50 of 5.35.

— BindingDB's records for doi:10.1021/acs.jmedchem.6b00247 (Sanford Burnham Prebys Medical Discovery Institute, 2016)
